Test results published in ChEMBL document CHEMBL1129513, “Nonpeptidic inhibitors of human neutrophil elastase. 7. Design, synthesis, and in vitro activity of a series of pyridopyrimidine trifluoromethyl ketones” (J Med Chem, 1996).
Values after ≈ are worked out from the molar mass of the structure shown.

Columns and labels:
Neutrophil elastase = molecular target: T1, Neutrophil elastase (Homo sapiens, UniProt P08246); test: Inhibition of Human Neutrophil Elastase-catalyzed hydrolysis of the synthetic substrate MeO-Suc-Ala-Ala-Pro-Val-p- nitroanilide.
T1 sequence (P08246 whole entry): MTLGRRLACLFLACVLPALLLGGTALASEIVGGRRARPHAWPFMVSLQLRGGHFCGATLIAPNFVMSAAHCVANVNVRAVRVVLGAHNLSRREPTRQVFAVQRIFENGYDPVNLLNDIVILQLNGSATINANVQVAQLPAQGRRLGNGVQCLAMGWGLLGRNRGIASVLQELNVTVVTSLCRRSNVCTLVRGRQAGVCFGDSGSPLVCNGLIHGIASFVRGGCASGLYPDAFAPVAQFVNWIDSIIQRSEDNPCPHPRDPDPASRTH

[1] = Solubility in 0.01 M sodium phosphate buffer at pH = 7.4; format: physicochemical

CC(C)C(NC(=O)Cn1ccc2c(=O)n(C)c(=O)[nH]c2c1=O)C(=O)C(F)(F)F (centres undefined)
Ki (Neutrophil elastase): 620 nM

COc1ccc(Cn2c(=O)[nH]c3c(=O)n(CC(=O)NC(C(=O)C(F)(F)F)C(C)C)ccc3c2=O)cc1 (centres undefined)
Ki (Neutrophil elastase): 100 nM

COC(=O)Cn1c(=O)[nH]c2c(=O)n(CC(=O)N[C@@H](C(=O)C(F)(F)F)C(C)C)ccc2c1=O
Ki (Neutrophil elastase): 490 nM

CC(C)C(NC(=O)Cn1ccc2c(=O)n(C(C)(C)Cc3ccccc3)c(=O)[nH]c2c1=O)C(=O)C(F)(F)F (centres undefined)
Ki (Neutrophil elastase): 16 nM

CC(C)C(NC(=O)Cn1ccc2c(=O)n(CC(=O)c3ccccc3)c(=O)[nH]c2c1=O)C(=O)C(F)(F)F (centres undefined)
Ki (Neutrophil elastase): 74 nM

CC(C)[C@@H](NC(=O)Cn1c(-c2ccccc2)cc2c(=O)n(CC(=O)OCc3ccccc3)c(=O)[nH]c2c1=O)C(=O)C(F)(F)F
Ki (Neutrophil elastase): 2.8 nM

COc1ccc(Cn2c(=O)[nH]c3c(=O)n(CC(=O)NC(C(=O)C(F)(F)F)C(C)C)c(-c4ccccc4)cc3c2=O)cc1 (centres undefined)
solubility [1]: 230 µg/mL (≈ 393 µM)
Ki (Neutrophil elastase): 5.7 nM

CC(C)C(NC(=O)Cn1ccc2c(=O)n(CCN3CCOCC3)c(=O)[nH]c2c1=O)C(=O)C(F)(F)F (centres undefined)
Ki (Neutrophil elastase): 330 nM

CC(C)C(NC(=O)Cn1ccc2c(=O)n(CCc3cccc4ccccc34)c(=O)[nH]c2c1=O)C(=O)C(F)(F)F (centres undefined)
Ki (Neutrophil elastase): 21 nM

CC(C)C(NC(=O)Cn1ccc2c(=O)[nH]c(=O)[nH]c2c1=O)C(=O)C(F)(F)F (centres undefined)
solubility [1]: > 5000 µg/mL
Ki (Neutrophil elastase): 910 nM

CC(C)C(NC(=O)Cn1c(-c2ccccc2)cc2c(=O)n(N(C)C)c(=O)[nH]c2c1=O)C(=O)C(F)(F)F (centres undefined)
solubility [1]: 320 µg/mL (≈ 631 µM)
Ki (Neutrophil elastase): 19 nM

CC(C)C(NC(=O)Cn1ccc2c(=O)n(Cc3cccc4ccccc34)c(=O)[nH]c2c1=O)C(=O)C(F)(F)F (centres undefined)
Ki (Neutrophil elastase): 26 nM

CC(C)C(NC(=O)Cn1ccc2c(=O)n(-c3ccccc3)c(=O)[nH]c2c1=O)C(=O)C(F)(F)F (centres undefined)
Ki (Neutrophil elastase): 830 nM

CC(C)[C@@H](NC(=O)Cn1ccc2c(=O)n(CC(=O)OC(C)(C)C)c(=O)[nH]c2c1=O)C(=O)C(F)(F)F
Ki (Neutrophil elastase): 290 nM

CC(C)C(NC(=O)Cn1ccc2c(=O)n(CCc3ccccc3)c(=O)[nH]c2c1=O)C(=O)C(F)(F)F (centres undefined)
Ki (Neutrophil elastase): 42 nM

CNC(=O)Cn1c(=O)[nH]c2c(=O)n(CC(=O)NC(C(=O)C(F)(F)F)C(C)C)c(-c3ccccc3)cc2c1=O (centres undefined)
solubility [1]: 100 µg/mL (≈ 187 µM)
Ki (Neutrophil elastase): 22 nM

CCOCCn1c(=O)[nH]c2c(=O)n(CC(=O)NC(C(=O)C(F)(F)F)C(C)C)c(-c3ccccc3)cc2c1=O (centres undefined)
solubility [1]: 8 µg/mL (≈ 14.9 µM)
Ki (Neutrophil elastase): 7.5 nM

CC(=O)Cn1c(=O)[nH]c2c(=O)n(CC(=O)NC(C(=O)C(F)(F)F)C(C)C)ccc2c1=O (centres undefined)
Ki (Neutrophil elastase): 310 nM

CC(C)C(NC(=O)Cn1ccc2c(=O)n([C@H]3C[C@@H]3c3ccccc3)c(=O)[nH]c2c1=O)C(=O)C(F)(F)F (some centres undefined)
Ki (Neutrophil elastase): 230 nM

CC(C)C(NC(=O)Cn1ccc2c(=O)n(Cc3ccccc3)c(=O)[nH]c2c1=O)C(=O)C(F)(F)F (centres undefined)
solubility [1]: 730 µg/mL (≈ 1530 µM)
Ki (Neutrophil elastase): 160 nM

CC(C)[C@@H](NC(=O)Cn1ccc2c(=O)n(CC(=O)O)c(=O)[nH]c2c1=O)C(=O)C(F)(F)F
Ki (Neutrophil elastase): 690 nM

CC(C)C(NC(=O)Cn1c(-c2ccccc2)cc2c(=O)n(CC(=O)NCc3ccccc3)c(=O)[nH]c2c1=O)C(=O)C(F)(F)F (centres undefined)
Ki (Neutrophil elastase): 9.9 nM

CC(C)[C@@H](NC(=O)Cn1c(-c2ccccc2)cc2c(=O)n(CC(N)=O)c(=O)[nH]c2c1=O)C(=O)C(F)(F)F
solubility [1]: 130 µg/mL (≈ 249 µM)
Ki (Neutrophil elastase): 15 nM

COC(Cn1c(=O)[nH]c2c(=O)n(CC(=O)NC(C(=O)C(F)(F)F)C(C)C)c(-c3ccccc3)cc2c1=O)OC (centres undefined)
solubility [1]: 420 µg/mL (≈ 760 µM)
Ki (Neutrophil elastase): 12 nM

CC(C)C(NC(=O)Cn1c(-c2ccccc2)cc2c(O)nc(O)nc2c1=O)C(=O)C(F)(F)F (centres undefined)
solubility [1]: 220 µg/mL (≈ 474 µM)
Ki (Neutrophil elastase): 15 nM

CC(C)C(NC(=O)Cn1cccc(NC(=O)OCc2ccccc2)c1=O)C(=O)C(F)(F)F (centres undefined)
solubility [1]: 110 µg/mL (≈ 243 µM)

CC(C)C(NC(=O)Cn1c(-c2ccccc2)cc2c(=O)n(C)c(=O)[nH]c2c1=O)C(=O)C(F)(F)F (centres undefined)
solubility [1]: 44 µg/mL (≈ 92 µM)
Ki (Neutrophil elastase): 10 nM

CC(C)C(NC(=O)Cn1c(-c2ccccc2)cc2c(=O)n(CCN3CCOCC3)c(=O)[nH]c2c1=O)C(=O)C(F)(F)F (centres undefined)
solubility [1]: 300 µg/mL (≈ 519 µM)
Ki (Neutrophil elastase): 8.4 nM
